Assay results published in article PMC12093383, “Protoporphyrin IX-Derived Ruthenium(II) Complexes for Photodynamic Therapy in Gastric Cancer Cells” (Inorganic Chemistry, 2025).
Like-named read-outs stand apart in the source and are kept apart here.

Key:
[1] = Fluorescence quantum yield; assay type: physicochemical; details: DMSO, ligands excited at 503 nm, ruthenium complexes at 573 nm, relative to verteporfin
Experimental: Emission spectra were measured in DMSO. The free ligands were excited at 503 nm, while the ruthenium complexes were excited at 573 nm. For the calculation of fluorescence quantum yield, verteporfin (Φf = 0.0085) was used as a reference.[46] In all metal-free compounds, an intense emission band at approximately 630–670 nm and a small band at approximately 700–750 nm were observed, assigned to Q (0–0) and Q (1–0) transitions, respectively.[48] […] A similar behavior has been observed in palladium(II) and nickel(II) metaloporphyrins, where the fluorescence was quenched due to electron or energy transfer.[49]
The fluorescence quantum yields were determined using verteporfin in DMSO as a reference (Φf = 0.0085).[46],[89] The free ligands were excited at 503 nm, and the ruthenium complexes at 573 nm. The quantum yield was calculated following eq 1.[90],[91] [drawing 1] 1 Where ST and X are standard and analyte, respectively, Φf is the fluorescence quantum yield, Grad is the gradient from the area of integration fluorescence intensity vs absorbance, and ηX and ηST are the refractive index of the solvent used to measure the fluorescence spectrum of the analyte and the standard, respectively.

[2] = system: AGS gastric cancer cells; experiment: MTT survival assay, dark or white-light irradiation; assay type: cell-based, human; details: for IC50: 8 h incubation, MTT after 48 h; for PI (phototoxicity index): IC50 dark/light ratio
Experimental: To assess the anticancer potential of compounds, the cytotoxicity was evaluated on the gastric cancer cell line AGS. The cells were treated in the dark for 8 h with increasing concentrations of the different compounds (Table 2). Cisplatin was used as a positive cytotoxic and clinically used drug control, and verteporfin (VP) or protoporphyrin-IX (PpIX) were used as positive PDT controls. Cells were then irradiated for 15 min with white light or kept in the dark and further cultivated for 48h in the dark. An MTT test was then performed to evaluate the impact of the different treatments on cell survival. […] The lower cytotoxicity of Ru-2 is most likely due to its low stability in biological media, as determined by stability tests in PBS/DMSO.
The human gastric adenocarcinoma (AGS) cell line was acquired from ATCC (Manassa, VA). AGS cells were cultured in RPMI 1640 medium (Roswell Park Memorial Institute) containing 10% fetal bovine serum (FBS) at 37 °C in a humidified atmosphere of 95% air and 5% CO2.
The antiproliferative activity of cancer cells was determined by the 3-(4,5-dimethylthiazol-2-yl)-2,5-diphenyltetrazolium bromide (MTT) assay. Cells were seeded at 10.000 cells per well (200 μL) in Cellstar 96-well plates (Greiner Bio-One) and further incubated for 24 h. Cells were treated with each compound at different concentrations for 8 h in the dark. After this time, the medium was removed, fresh medium was added, and cells were kept in the dark or irradiated with white light for 15 min. Subsequently, the plates were incubated in the dark for an additional 48 h, and the MTT assay was performed as previously described in the literature.[34] Measurements were performed at 550 nm with the Tristar2Multimode Reader (Berthold Technologies).

[3] = Shake-flask partition coefficient, 1-octanol/PBS; assay type: physicochemical; details: average of three independent experiments at 27 °C
From the text: The n-octanol/water partition coefficient (log Po/w) is a well-established parameter that helps to predict the biological activity of drugs and other biologically active compounds.[56] The so-called “shake-flask” method was adopted to determine the partition coefficient using 1-octanol and PBS (phosphate-buffered saline) as solvents.[57] All the porphyrin derivatives presented low lipophilicity values. At the same time, the chlorin compounds were much more lipophilic as expected due to the reduction of one of the pyrrole rings and the formation of the new ring in the chlorin.
The partition coefficient (log Po/PBS) of each compound was determined experimentally by the “shake-flask” method at room temperature following reported methods.[57],[96] A mixture of 1-octanol and PBS in equal amounts was shaken for 24 h, after which the phases were allowed to separate for 24 h. Then, a 1 × 10^–5 M solution of each compound is prepared in 1-octanol/PBS (1:1), and the mixture is left to stir for 24 h. After 24 h of stirring, the mixture is left for 24 h to separate the two phases. Finally, the concentration of each compound in the two phases is determined by UV–vis spectroscopy. logP was determined by the following eq 3.[97] [drawing 3] 3 Where Aap is the absorbance after partition, and Abp is the absorbance before partition.

[4] = system: cleaved caspase 3 and PARP; experiment: Western blot of apoptosis markers in AGS cells; assay type: cell-based, human; details: IC50 concentration 4 h, white light 15 min, 24 h in the dark
From the text: (§1) The therapeutic effects of PDT treatment on cancer cells are thought to be mainly related to ROS production, which are highly reactive and cytotoxic species that can induce cell death by apoptosis.[62] It has also been shown that ruthenium compounds can induce different cell death pathways.[63],[64] For these reasons, we initially analyzed by Western blot the expression of cleaved caspase 3 and PARP, which are two well-known markers for programmed cell death apoptosis.[65]−[70] […] The cells were then further cultivated in the dark for 24 h. […] Then, the protein expression of CHOP, a key component of the endoplasmic reticulum (ER) stress-mediated apoptosis pathway and known to be induced by ruthenium compounds, was evaluated.[71],[72] […] To investigate this, the expression and conversion of LC3B–I to LC3B–II was analyzed by Western blot (Figure 11).
(§2) Figure 11 Effects of photoactivation of 1, Ru-1, 3B, and Ru-3B on protein expression on different cell death markers in AGS gastric cancer cells. […] Protein extraction was performed, and expression of the different markers was determined by Western blot. […]
(§3) Cells were then lysed in lysis buffer (50 mM Tris–HCl pH 6.7, NaCl 150 mM, NP40 1%). Total protein concentration was determined using Bradford assay and adjusted to the same quantity (50 μg) for each experiment. […] Protein bands were quantified using ImageJ software.[99] […]

[5] = system: COX2; experiment: Western blot of COX2 in AGS cells; assay type: cell-based, human; details: IC50 concentration 4 h; for COX2 expression in the dark: kept in the dark
Experimental: Figure 12 Effects of photoactivation of 1, Ru-1, 3B and Ru-3B on protein expression of ferroptosis and inflammation markers in AGS gastric cancer cells. […] (a) Expression of the different markers was determined by Western blot. GAPDH was used as a loading control. Representative Western blot of three independent experiments. ctl = control, untreated cells. Graphs represent the quantification of three independent experiments of GPX4 (b) and COX2 (c) expression, compared to not-treated AGS cells (ctl) and normalized to GAPDH expression. Bars above the colons indicate the comparison of dark versus light for each compound. The dark and light results of each compound were compared to those of the respective untreated control condition (ctl). Statistical analysis: 2-way Anova *<0.05, **<0.01, ***<0.001, ns = not-significant.
COX2 is known for its central role in inflammation and prostaglandins (PGs) production. In normal cells, COX2 expression is almost absent, whereas in cancer cells, it is frequently overexpressed.[84] Importantly, it has been shown that in cancers, COX2 is not only a mediator of inflammation but could also be a mediator of oxidative stress and inhibition of apoptosis, as well as cancer cell proliferation.[85]
Cells were then lysed in lysis buffer (50 mM Tris–HCl pH 6.7, NaCl 150 mM, NP40 1%). Total protein concentration was determined using Bradford assay and adjusted to the same quantity (50 μg) for each experiment. A total of 30 μg of proteins were resolved by 6–15% SDS-PAGE (depending on protein molecular weight) and transferred to nitrocellulose blotting membranes according to standard methods. Membranes were blocked with blocking buffer (containing 5% milk powder or 1% BSA) for 1 h at room temperature, then washed three times with TBST or PBST (containing 0.1% Tween-20) and incubated with primary antibodies at 4 °C overnight. The following day, the membranes were washed thrice with […]. […] Protein bands were quantified using ImageJ software.[99] […]

[6] = system: GPX4; experiment: Western blot of GPX4 in AGS cells; assay type: cell-based, human; details: IC50 concentration 4 h, white light 15 min, 24 h in the dark
Experimental: Ferroptosis, another form of nonapoptotic cell death, can promote inflammation and is triggered by iron-catalyzed lipid peroxidation via Fenton-type reactions, where the main ROS responsible for lipid damage are hydroxyl radical and superoxide radical.[81],[82] Glutathione peroxidase (GPX4) can suppress lipid peroxidation and protect cells from ferroptosis.[83] To investigate the impact of the different compounds on GPX4 expression, AGS cells were treated as described above, and then GPX4 expression was analyzed by Western blot (Figure 12a).
Figure 12 Effects of photoactivation of 1, Ru-1, 3B and Ru-3B on protein expression of ferroptosis and inflammation markers in AGS gastric cancer cells. […] (a) Expression of the different markers was determined by Western blot. GAPDH was used as a loading control. Representative Western blot of three independent experiments. ctl = control, untreated cells. Graphs represent the quantification of three independent experiments of GPX4 (b) and COX2 (c) expression, compared to not-treated AGS cells (ctl) and normalized to GAPDH expression. […]
as §3

[7] = system: LC3B; experiment: Western blot of LC3B-I/II in AGS cells; assay type: cell-based, human; details: IC50 concentration 4 h, white light 15 min, 24 h in the dark
From the text: as §1, §2, §3

[8] = Homo sapiens, AGS, kept in dark, N = 3, read-out: IC50 dark
[9] = Homo sapiens, AGS, white light 15 min, N = 3, read-out: IC50 light

SMILES | Φf luminescence quantum yield [1] | IC50 [2, 8] | IC50 [2, 9] | log PO/PBS [3] | PI (phototoxicity index) [2] | cleavage of caspase 3 and PARP [4] | COX2 expression upon light irradiation ([5]; white light 15 min, 24 h in the dark, vs untreated) | GPX4 expression [6] | COX2 expression in the dark [5] | IC50 ([2]; kept in dark, N = 3, read-out: IC50 dark) | IC50 ([2]; white light 15 min, N = 3, read-out: IC50 light) | LC3B-I/II expression [7]
C=Cc1c(C)c2cc3nc(cc4[nH]c(cc5nc(cc1[nH]2)C(C)=C5CCC(=O)OC)c(CCC(=O)OC)c4C)C1(C)C3=CCC(C(=O)OC)=C1C(=O)OC (stereo not drawn) [3A] | 1.2% | > 100000 nM | 100 ± 60 nM | 1.478 ± 0.083 |  |  |  |  |  |  |  | 
C=CC1=C(C)c2cc3[nH]c(cc4nc(cc5[nH]c(cc1n2)c(C)c5CCC(=O)OC)C(CCC(=O)OC)=C4C)c(C)c3C=C [compound 1] | 0.80% | > 100000 nM | 1700 ± 184 nM | 0.957 ± 0.056 | > 17 | as efficient as VP | significantly reduce COX2 expression |  |  |  |  | 
C=CC1=C(C)c2cc3[nH]c(cc4nc(cc5[nH]c(cc1n2)c(C)c5CCC(=O)O)C(CCC(=O)O)=C4C)c(C)c3C=C [PpIX, protoporphyrin IX] |  | > 100000 nM | 500 nM |  | >200 |  |  | decrease in GPX4 expression | reduction in COX2 expression in the dark |  |  | 
C=CC1=C(C)c2cc3[nH]c(cc4nc(cc5[nH]c(cc1n2)c(C)c5CCC(=O)OCc1ccccc1)C(CCC(=O)OCc1ccccc1)=C4C)c(C)c3C=C [compound 2] | 0.80% | > 100000 nM | 2600 ± 100 nM | 1.063 ± 0.142 | > 18 |  |  |  |  |  |  | 
N.N.[Cl][Pt][Cl] [cisplatin, reference compound] |  |  |  |  |  |  |  |  |  | 29000 nM |  | 
C=Cc1c(C)c2cc3nc(cc4[nH]c(cc5nc(cc1[nH]2)C(C)=C5CCC(=O)OCc1ccccc1)c(CCC(=O)OCc1ccccc1)c4C)C1(C)C3=CCC(C(=O)OC)=C1C(=O)OC (stereo not drawn) [4A] | 1.0% | > 100000 nM | 2500 ± 231 nM | 1.368 ± 0.042 | >40 |  |  |  |  |  |  | 
C=Cc1c(C)c2cc3nc(cc4[nH]c(cc5nc(cc1[nH]2)C1(C)C5=CCC(C(=O)OC)=C1C(=O)OC)c(C)c4CCC(=O)OC)C(CCC(=O)OC)=C3C (stereo not drawn) [3B] | 1.2% | > 100000 nM | 180 nM | 1.661 ± 0.088 |  |  |  |  | reduction in COX2 expression in the dark |  | 200 ± 21 nM | marked induction of LC3B–I/II expression
C=Cc1c(C)c2cc3nc(cc4[nH]c(cc5nc(cc1[nH]2)C1(C)C5=CCC(C(=O)OC)=C1C(=O)OC)c(C)c4CCC(=O)OCc1ccccc1)C(CCC(=O)OCc1ccccc1)=C3C (stereo not drawn) [4B] | 1.0% | > 100000 nM | 2800 ± 265 nM | 1.682 ± 0.176 | >36 |  |  |  |  |  |  | 
